The text below walks through data of PubChem BioAssay AID588672 (Sanford-Burnham Center for Chemical Genomics, 2011).

Structures are written as SMILES. Calls of active or inactive are those of the source.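 The calls were made as follows: active = IC50 at or below 20 µM; inactive = the rest.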

The assay deals with Glucose-6-phosphate 1-dehydrogenase (Homo sapiens) (UniProt P11413). Briefly: human G6PD enzyme inhibitors, SAR follow-up, selectivity assay for P. falciparum G6PD inhibitor project, biochemical, fluorescence, dose response, set 2 (AID 588672). Conditions: recombinant human G6PD, NADPH-diaphorase-resazurin fluorescence.
Glucose-6-phosphate 1-dehydrogenase (Homo sapiens), sequence (P11413 whole entry, looked up): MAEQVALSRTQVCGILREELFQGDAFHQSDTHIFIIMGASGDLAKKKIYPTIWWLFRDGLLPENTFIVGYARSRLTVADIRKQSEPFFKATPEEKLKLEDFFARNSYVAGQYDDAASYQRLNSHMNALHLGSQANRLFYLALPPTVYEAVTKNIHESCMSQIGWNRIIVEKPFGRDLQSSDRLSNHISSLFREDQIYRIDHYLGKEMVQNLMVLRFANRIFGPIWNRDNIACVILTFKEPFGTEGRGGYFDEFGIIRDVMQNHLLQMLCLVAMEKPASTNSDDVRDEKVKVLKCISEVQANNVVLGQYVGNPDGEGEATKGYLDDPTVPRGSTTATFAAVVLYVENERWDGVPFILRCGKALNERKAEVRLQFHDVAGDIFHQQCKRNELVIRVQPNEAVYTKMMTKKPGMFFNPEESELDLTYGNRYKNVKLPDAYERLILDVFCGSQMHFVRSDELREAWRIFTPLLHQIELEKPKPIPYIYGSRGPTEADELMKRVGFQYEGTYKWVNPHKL

As to `O=C(NCCN1CCCC1)c1ccc2c(c1)NC(=O)c1ccccc1S2`, the IC50 is > 80 µM (inactive).
Take `CCN1CCCC1CNC(=O)c1ccc2c(c1)NC(=O)/C(=C/c1ccccc1C)S2` (stereo not given): the IC50 is > 80 µM (inactive).
To `O=C1Nc2cc(C(=O)NCCN3CCCCC3)ccc2S/C1=C\c1ccccc1F` belongs > 80 µM (inactive); to `CCN1CCCC1CNC(=O)c1ccc2c(c1)NC(=O)/C(=C/c1ccccc1OC)S2` (stereo not given), > 80 µM (inactive); to `O=C1COc2ccc(C(=O)NCCN3CCOCC3)cc2N1`, > 80 µM (inactive).
For `CCN1CCC[C@@H]1CNC(=O)c1ccc2c(c1)NC(=O)/C(=C/c1ccccc1F)S2`, the IC50 was > 80 µM (inactive).
For the compound `O=C1Nc2cc(C(=O)NCCN3CCOCC3)ccc2S/C1=C\c1ccccc1F`, the IC50 was > 80 µM (inactive).
In the case of `O=C1Nc2cc(C(=O)NCCN3CCCC3)ccc2S/C1=C\c1ccccc1F`, the IC50 is > 80 µM (inactive).
To `CCN1CCCC1CNC(=O)c1ccc2c(c1)NC(=O)CS2` (stereo not given) belongs > 80 µM (inactive).
Regarding `CN(C)CCNC(=O)c1ccc2c(c1)NC(=O)/C(=C/c1ccccc1F)S2`, the IC50 was > 80 µM (inactive).
In the case of `O=C1COc2ccc(C(=O)NCCN3CCCCC3)cc2N1`, the IC50 is > 80 µM (inactive).
To `CCN1CCCC1CNC(=O)c1ccc2c(c1)NC(=O)/C(=C/c1ccccc1)S2` (stereo not given) belongs > 80 µM (inactive).
Turning to `CCN1CCCC1CNC(=O)c1ccc2c(c1)NC(=O)c1ccccc1S2` (stereo not given), the IC50 is > 80 µM (inactive).
To `CCN(CC)CCNC(=O)c1ccc2c(c1)NC(=O)c1ccccc1S2` belongs > 80 µM (inactive); to `CCN1CCC[C@H]1CNC(=O)c1ccc2c(c1)NC(=O)/C(=C/c1ccccc1F)S2`, > 80 µM (inactive).
To `CN(C)CCNC(=O)c1ccc2c(c1)NC(=O)CO2` belongs > 80 µM (inactive); to `CCN(CC)CCNC(=O)c1ccc2c(c1)NC(=O)c1ccccc1O2`, > 80 µM (inactive).
Take `CCN1CCCC1CNC(=O)c1ccc2c(c1)NC(=O)/C(=C/c1cccc3ccccc13)S2` (stereo not given): the IC50 is > 80 µM (inactive).
As for `O=C(NCCN1CCOCC1)c1ccc2c(c1)NC(=O)c1ccccc1O2`, the IC50 was > 80 µM (inactive).
As to `CN1CCCC1CCNC(=O)c1ccc2c(c1)NC(=O)/C(=C/c1ccccc1F)S2` (stereo not given), the IC50 is > 80 µM (inactive).
For `CCN1CCCC1CNC(=O)c1ccc2c(c1)NC(=O)/C(=C/c1ccccc1F)S2` (stereo not given), the IC50 was > 80 µM (inactive).
As to `CCN1CCCC1CNC(=O)c1ccc2c(c1)NC(=O)c1ccccc1O2` (stereo not given), the IC50 was > 80 µM (inactive).
In the case of `O=C(NCCN1CCCCC1)c1ccc2c(c1)NC(=O)c1ccccc1O2`, the IC50 is > 80 µM (inactive).
In the case of `O=C1Nc2cc(C(=O)NCc3ccccc3)ccc2S/C1=C\c1ccccc1F`, the IC50 is > 80 µM (inactive).
For the compound `CCN1CCCC1CNC(=O)c1ccc2c(c1)NC(=O)CO2` (stereo not given), the IC50 was > 80 µM (inactive).
Turning to `CCN(CC)CCNC(=O)c1ccc2c(c1)NC(=O)CO2`, the IC50 was > 80 µM (inactive).
On to `O=C1COc2ccc(C(=O)NCCN3CCCC3)cc2N1`, for which the IC50 was > 80 µM (inactive).
Take `O=C(NCCN1CCCC1)c1ccc2c(c1)NC(=O)c1ccccc1O2`: the IC50 was > 80 µM (inactive).
Take `CN1CCN(C(=O)c2ccc3c(c2)NC(=O)/C(=C/c2ccccc2Cl)S3)CC1`: the IC50 is > 80 µM (inactive).
`CN(C)CCNC(=O)c1ccc2c(c1)NC(=O)c1ccccc1O2`: the IC50 was > 80 µM (inactive).
